Columns and labels:
Assay in all cases: Method 1: intracellular Ca2+ release (FLIPR, Calcium 5) in recombinant CHO-K1 cells
Assay type in all cases: cell-based
[1] = biological target: T1, human S1PR1 receptor (Homo sapiens, UniProt P21453); conditions: (1): determined with method 1; read-out: S1P1 EC50
T1 construct: host or cells: CHO-K1
Experimental: (§1) Agonistic activity was measured using two different methods, described below.
(§2) Method 1. Intracellular Ca^2+ Release
(§3) Agonist potency and intrinsic activity was assessed by measurement of intracellular Ca^2+ release. Recombinant CHO-K1 cells (Euroscreen, Brussels, Belgium) expressing human S1PR5, S1PR1, S1PR3 or S1PR4 receptors, aequorin, and GTP binding protein Gq/i5 were cultured using a medium containing nutrient mixture F-12 Ham (Sigma-Aldrich) with 10% FBS, and 100 μg/mL gentamicin and equilibrated at 5% CO2.
(§4) 15.000 cells in 20 μL medium were seeded into Biocoat poly-D-Lysine coated 384 well plates (Becton Dickinson #35-6663) and grown to 95% confluency after 24 h.
(§5) Culture medium was replaced by an assay buffer consisting of HBBS with Ca^2+ and Mg^2+ (Invitrogen #14025-050), 20 mmol/L Hepes (Sigma-Aldrich #H-3375), 2.5 mmol/L probenecid (Sigma-Aldrich #P-8761, and 0.1% BSA (Sigma-Aldrich #A-7030) pH 7.4. The Calcium 5 no-wash FLIPR assay kit (Molecular Devices #5000625) was performed as described in the kit instructions. Cells were incubated with Calcium 5 dye for 1 h at 37° C., 5% CO2 in the dark. After 45 min adaptation to RT assessment of agonist stimulation of intracellular Ca^2+ release was performed by addition of test compounds at concentrations obtained by serial dilution. Phospho-fingolimod was used as positive control. Antagonists were pre-incubated for 10 min with cells before addition of the agonist (phospho-fingolimod at EC80). Measurements were performed using a fluorometric imaging plate reader FLIPR® tetra (Molecular Devices). Agonist at the human S1P receptors were characterized by deducing EC50 (potency) values from a nonlinear fit to the measured fluorescence raw data after normalization to the reference agonist (phospho-fingolimod) curve.

[2] = biological target: T2, human S1PR3 receptor (Homo sapiens, UniProt Q99500); conditions: (1): determined with method 1; read-out: S1P3 EC50
T2 construct: host or cells: CHO-K1
Experimental: as §1, §2, §3, §4, §5

[3] = biological target: T3, human S1PR5 receptor (Homo sapiens, UniProt Q9H228); conditions: agonist potency, determined with method 1 (symbols A-D); read-out: S1P5 EC50 range
T3 construct: host or cells: CHO-K1
Experimental: as §1, §2, §3, §4, §5

T2 sequence (Q99500 whole entry): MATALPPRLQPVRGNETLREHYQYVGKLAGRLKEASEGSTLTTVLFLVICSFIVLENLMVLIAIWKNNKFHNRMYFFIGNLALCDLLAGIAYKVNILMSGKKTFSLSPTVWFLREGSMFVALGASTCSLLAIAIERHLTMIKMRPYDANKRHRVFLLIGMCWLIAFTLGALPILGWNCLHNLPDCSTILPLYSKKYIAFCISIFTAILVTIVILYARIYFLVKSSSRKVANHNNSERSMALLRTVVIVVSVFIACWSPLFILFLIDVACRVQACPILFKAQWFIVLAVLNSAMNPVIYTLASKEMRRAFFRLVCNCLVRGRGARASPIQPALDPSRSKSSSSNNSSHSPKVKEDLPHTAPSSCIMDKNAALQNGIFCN
T3 sequence (Q9H228 whole entry): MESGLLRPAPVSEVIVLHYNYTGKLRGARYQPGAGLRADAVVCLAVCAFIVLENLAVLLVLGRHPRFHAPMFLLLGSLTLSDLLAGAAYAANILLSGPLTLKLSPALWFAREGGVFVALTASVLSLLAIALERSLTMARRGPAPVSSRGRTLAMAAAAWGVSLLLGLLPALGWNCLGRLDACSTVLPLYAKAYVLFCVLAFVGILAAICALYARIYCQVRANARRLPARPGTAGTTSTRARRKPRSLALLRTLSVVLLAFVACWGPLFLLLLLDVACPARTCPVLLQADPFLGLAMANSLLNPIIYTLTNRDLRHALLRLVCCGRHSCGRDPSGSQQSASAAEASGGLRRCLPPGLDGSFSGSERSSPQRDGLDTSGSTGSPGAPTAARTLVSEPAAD
T1 sequence (P21453 whole entry): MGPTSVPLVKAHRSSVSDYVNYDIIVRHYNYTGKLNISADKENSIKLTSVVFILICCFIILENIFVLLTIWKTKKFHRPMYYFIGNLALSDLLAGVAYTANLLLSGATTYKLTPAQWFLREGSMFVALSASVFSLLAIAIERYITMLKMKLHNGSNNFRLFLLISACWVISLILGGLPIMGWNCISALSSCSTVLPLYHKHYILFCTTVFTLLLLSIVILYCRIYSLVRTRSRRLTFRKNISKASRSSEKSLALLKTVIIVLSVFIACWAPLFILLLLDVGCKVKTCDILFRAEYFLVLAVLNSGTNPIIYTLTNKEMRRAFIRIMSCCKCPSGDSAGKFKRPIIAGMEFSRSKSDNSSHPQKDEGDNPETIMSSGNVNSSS

How did the EC50 [1] turn out when O=C(O)CCN1CCc2ncc(-c3ccc(OCc4ccccc4)cc3)nc2C1 [Compound 221, 3-(3-(4-(benzyloxy)phenyl)-7,8-dihydropyrido[3,4-b]pyrazin-6(5H)-yl)propanoic acid] was run?
The EC50 was > 1 µM.

What about the EC50 [2] of the same compound?
The EC50 was > 1 µM.

What about the EC50 [3] of the same compound?
Its EC50 is 1 to 10 µM.

For O=C(O)CCN1CCc2nc(-c3ccc(OCc4ccc(C(F)(F)F)cc4)cc3)ncc2C1 [Compound 81, 3-(2-(4-((4-(trifluoromethyl)benzyl)oxy)phenyl)-7,8-dihydropyrido[4,3-d]pyrimidin-6(5H)-yl)propanoic acid], which EC50 [1] is on record?
Its EC50 is > 1 µM.

And the EC50 [2]?
The EC50 was > 1 µM.

And the EC50 [3]?
The EC50 was < 0.01 µM.

O=C(O)CCN1CCc2nc(-c3ccc(OCc4ccc(F)c(F)c4)cc3)ncc2C1 [Compound 71, 3-(2-(4-((3,4-difluorobenzyl)oxy)phenyl)-7,8-dihydropyrido[4,3-d]pyrimidin-6(5H)-yl)propanoic acid] was tested. Which EC50 [1] did it give?
The EC50 was > 1 µM.

And the EC50 [2]?
Its EC50 is > 1 µM.

And the EC50 [3]?
The EC50 was < 0.01 µM.

Which EC50 [1] does the source give for Cc1cc(OC(F)(F)F)ccc1COc1ccc(-c2ncc3c(n2)CCN(CCC(=O)O)C3)cc1 [Compound 93, 3-(2-(4-((2-methyl-4-(trifluoromethoxy)benzyl)oxy)phenyl)-7,8-dihydropyrido[4,3-d]pyrimidin-6(5H)-yl)propanoic acid] here?
The EC50 was < 1 µM.

And the EC50 [2]?
The EC50 was > 1 µM.

And the EC50 [3]?
The EC50 was < 0.01 µM.

Which results are given for O=C(O)CCN1CCc2nc(-c3ccc(OCc4ccc(C(F)(F)F)cc4)cc3)ccc2C1 [Compound 152, 3-(2-(4-((4-trifluoromethylbenzyl)oxy)phenyl)-7,8-dihydro-1,6-naphthyridin-6(5H)-yl)propanoic acid]?
EC50 [1]: > 1 µM; EC50 [2]: > 1 µM; EC50 [3]: < 0.01 µM

Which EC50 [1] does the source give for Cc1cc(-c2ccc3c(n2)CCN(CC(=O)O)C3)ccc1OCc1ccccc1 [Compound 111, 2-(2-(4-(benzyloxy)-3-methylphenyl)-7,8-dihydro-1,6-naphthyridin-6(5H)-yl)acetic acid] here?
Its EC50 is > 1 µM.

What about the EC50 [2] of the same compound?
Its EC50 is > 1 µM.

What about the EC50 [3] of the same compound?
Its EC50 is 0.1 to 1 µM.

Which results are given for CSc1ccc(COc2ccc(-c3ncc4c(n3)CCN(CCC(=O)O)C4)cc2)cc1 [Compound 80, 3-(2-(4-((4-(methylthio)benzyl)oxy)phenyl)-7,8-dihydropyrido[4,3-d]pyrimidin-6(5H)-yl)propanoic acid]?
EC50 [1]: > 1 µM; EC50 [2]: > 1 µM; EC50 [3]: < 0.01 µM

How did the EC50 [1] turn out when O=C(O)CCN1CCc2nc(-c3ccc(OCc4ccc(OC(F)(F)F)cc4)cc3)ccc2C1 [Compound 153, 3-(2-(4-((4-trifluoromethoxybenzyl)oxy)phenyl)-7,8-dihydro-1,6-naphthyridin-6(5H)-yl)propanoic acid] was run?
Its EC50 is > 1 µM.

What about the EC50 [2] of the same compound?
Its EC50 is > 1 µM.

And the EC50 [3]?
The EC50 was 0.1 to 1 µM.

O=C(O)CCCN1CCc2nc(-c3ccc(OCc4ccccc4)cc3)ncc2C1 [Compound 37, 4-(2-(4-(benzyloxy)phenyl)-7,8-dihydro-dihydropyrido[4,3-d]pyrimidin-6(5H)-yl)butanoic acid] was tested. Which EC50 [1] did it give?
Its EC50 is > 1 µM.

What about the EC50 [2] of the same compound?
The EC50 was > 1 µM.

What about the EC50 [3] of the same compound?
The EC50 was 0.01 to 0.1 µM.

How did the EC50 [1] turn out when O=C(O)CCN1CCc2nc(-c3ccc(OCc4ccc(F)c(F)c4)cc3)c(F)cc2C1 [Compound 198, 3-(2-(4-((3,4-difluorobenzyl)oxy)phenyl)-3-fluoro-7,8-dihydro-1,6-naphthyridin-6(5H)-yl)propanoic acid] was run?
Its EC50 is < 1 µM.

And the EC50 [2]?
Its EC50 is > 1 µM.

And the EC50 [3]?
Its EC50 is < 0.01 µM.

How did the EC50 [1] turn out when Cc1cc(-c2cc3c(cn2)CN(CCC(=O)O)CC3)ccc1OCc1ccccc1 [Compound 171, 3-(6-(4-(benzyloxy)-3-methylphenyl)-3,4-dihydro-2,7-naphthyridin-2(1H)-yl)propanoic acid] was run?
The EC50 was > 1 µM.

And the EC50 [2]?
Its EC50 is > 1 µM.

What about the EC50 [3] of the same compound?
The EC50 was 0.01 to 0.1 µM.

How did the EC50 [1] turn out when CC(CN1CCc2nc(-c3ccc(OCc4ccc(F)c(F)c4)cc3)ncc2C1)C(=O)O (stereo not drawn) [Compound 11, 3-(2-(4-((3,4-difluorobenzyl)oxy)phenyl)-7,8-dihydropyrido[4,3-d]pyrimidin-6(5H)-yl)-2-methylpropanoic acid] was run?
The EC50 was > 1 µM.

And the EC50 [2]?
The EC50 was > 1 µM.

What about the EC50 [3] of the same compound?
The EC50 was < 0.01 µM.

What does the source list for O=C(O)CCN1CCc2nc(-c3ccc(OCc4cccc(OC(F)F)c4)cc3)ncc2C1 [Compound 92, 3-(2-(4-((3-(difluoromethoxy)benzyl)oxy)phenyl)-7,8-dihydropyrido[4,3-d]pyrimidin-6(5H)-yl)propanoic acid]?
EC50 [1]: > 1 µM; EC50 [2]: > 1 µM; EC50 [3]: 0.01 to 0.1 µM

Which EC50 [1] does the source give for O=C(O)CCN1Cc2ccc(-c3cccc(OCc4ccccc4)c3)nc2C1 [Compound 204, 3-(2-(3-(benzyloxy)phenyl)-5H-pyrrolo[3,4-b]pyridin-6(7H)-yl)propanoic acid] here?
The EC50 was > 1 µM.

And the EC50 [2]?
The EC50 was > 1 µM.

What about the EC50 [3] of the same compound?
Its EC50 is 1 to 10 µM.

For CC(CN1CCc2nc(-c3ccc(OCc4ccccc4F)c(Cl)c3)ccc2C1)C(=O)O (stereo not drawn) [Compound 105, 3-(2-(4-((2-fluorobenzyl)oxy)-3-chlorophenyl)-7,8-dihydro-1,6-naphthyridin-6(5H)-yl)-2-methylpropanoic acid], which EC50 [1] is on record?
Its EC50 is > 1 µM.

What about the EC50 [2] of the same compound?
Its EC50 is > 1 µM.

And the EC50 [3]?
Its EC50 is 0.1 to 1 µM.

Cc1cc(-c2ccc3c(n2)CCN(CC(=O)O)C3)ccc1OCc1ccc(C(F)(F)F)cc1 [Compound 112, 2-(2-(3-methyl-4-((4-(trifluoromethyl)benzyl)oxy)phenyl)-7,8-dihydro-1,6-naphthyridin-6(5H)-yl)acetic acid] was tested. Which EC50 [1] did it give?
The EC50 was > 1 µM.

And the EC50 [2]?
Its EC50 is > 1 µM.

What about the EC50 [3] of the same compound?
The EC50 was 0.1 to 1 µM.

O=C(O)CCCN1CCc2nc(-c3ccc(OCc4cccc(Cl)c4)cc3)ncc2C1 [Compound 38, 4-(2-(4-((3-chlorobenzyl)oxy)phenyl)-7,8-dihydropyrido[4,3-d]pyrimidin-6(5H)-yl)butanoic acid] was tested. Which EC50 [1] did it give?
Its EC50 is > 1 µM.

What about the EC50 [2] of the same compound?
The EC50 was > 1 µM.

What about the EC50 [3] of the same compound?
The EC50 was < 0.01 µM.

With O=C(O)CCN1CCc2nc(-c3ccc(OCc4ccc(C(F)F)cc4)cc3)ncc2C1 [Compound 77, 3-(2-(4-((4-difluoromethylbenzyl)oxy)phenyl)-7,8-dihydropyrido[4,3-d]pyrimidin-6(5H)-yl)propanoic acid] as the compound, how does the EC50 [1] read?
The EC50 was > 1 µM.

What about the EC50 [2] of the same compound?
Its EC50 is > 1 µM.

What about the EC50 [3] of the same compound?
The EC50 was < 0.01 µM.

Which EC50 [1] does the source give for Cc1ccc(C(F)(F)F)c(COc2ccc(-c3ncc4c(n3)CCN(CCC(=O)O)C4)cc2)c1 [Compound 91, 3-(2-(4-((5-methyl-2-(trifluoromethyl)benzyl)oxy)phenyl)-7,8-dihydropyrido[4,3-d]pyrimidin-6(5H)-yl)propanoic acid] here?
Its EC50 is > 1 µM.

And the EC50 [2]?
The EC50 was > 1 µM.

And the EC50 [3]?
The EC50 was 0.1 to 1 µM.

Which results are given for CC(CC(=O)O)N1CCc2nc(-c3ccc(OCc4ccc(F)c(F)c4)cc3)ncc2C1 (stereo not drawn) [Compound 42, 3-(2-(4-((3,4-difluorobenzyl)oxy)phenyl)-7,8-dihydropyrido[4,3-d]pyrimidin-6(5H)-yl)butanoic acid]?
EC50 [1]: > 1 µM; EC50 [2]: > 1 µM; EC50 [3]: < 0.01 µM

Which EC50 [1] does the source give for CC(CN1CCc2nc(-c3ccc(OCc4cccc(Cl)c4)cc3)ncc2C1)C(=O)O (stereo not drawn) [Compound 10, 3-(2-(4-((3-chlorobenzyl)oxy)phenyl)-7,8-dihydropyrido[4,3-d]pyrimidin-6(5H)-yl)-2-methylpropanoic acid] here?
Its EC50 is > 1 µM.

What about the EC50 [2] of the same compound?
The EC50 was > 1 µM.

What about the EC50 [3] of the same compound?
The EC50 was < 0.01 µM.

CC(C)Oc1ccc(-c2ncc3c(n2)CCN(CCCC(=O)O)C3)cc1Cl [Compound 47, 4-(2-(3-chloro-4-isopropoxyphenyl)-7,8-dihydropyrido[4,3-d]pyrimidin-6(5H)-yl)butanoic acid] was tested. Which EC50 [1] did it give?
Its EC50 is > 1 µM.

And the EC50 [2]?
Its EC50 is > 1 µM.

And the EC50 [3]?
The EC50 was 1 to 10 µM.

From US10556907B2 (AbbVie Inc., priority 2015, dated 2020)
